Measured values from ChEMBL document CHEMBL5291721, “A preclinical secondary pharmacology resource illuminates target-adverse drug reaction associations of marketed drugs” (Nat Commun, 2023).

Key:
[1] = biological target: T1, Cholecystokinin receptor type A (Homo sapiens, UniProt P32238)
T1 sequence (P32238 whole entry): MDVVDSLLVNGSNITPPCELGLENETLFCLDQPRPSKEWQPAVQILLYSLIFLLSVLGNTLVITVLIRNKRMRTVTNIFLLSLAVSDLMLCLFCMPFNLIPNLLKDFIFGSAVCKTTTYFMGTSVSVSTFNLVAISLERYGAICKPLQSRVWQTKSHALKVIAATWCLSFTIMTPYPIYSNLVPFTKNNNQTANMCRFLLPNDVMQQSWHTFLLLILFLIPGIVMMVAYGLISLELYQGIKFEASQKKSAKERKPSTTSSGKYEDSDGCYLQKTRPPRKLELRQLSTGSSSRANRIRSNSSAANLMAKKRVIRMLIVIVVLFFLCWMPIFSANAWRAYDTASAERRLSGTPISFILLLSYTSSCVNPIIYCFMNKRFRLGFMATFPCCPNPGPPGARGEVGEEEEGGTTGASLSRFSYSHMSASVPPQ

[2] = biological target: Vasopressin V1a receptor (Homo sapiens, UniProt P37288)
[3] = biological target: Beta-1 adrenergic receptor (Homo sapiens, UniProt P08588); format: functional
[4] = biological target: Growth hormone secretagogue receptor type 1 (Homo sapiens, UniProt Q92847)
[5] = biological target: T2, Progesterone receptor (Homo sapiens, UniProt P06401); format: functional
T2 sequence (P06401 whole entry): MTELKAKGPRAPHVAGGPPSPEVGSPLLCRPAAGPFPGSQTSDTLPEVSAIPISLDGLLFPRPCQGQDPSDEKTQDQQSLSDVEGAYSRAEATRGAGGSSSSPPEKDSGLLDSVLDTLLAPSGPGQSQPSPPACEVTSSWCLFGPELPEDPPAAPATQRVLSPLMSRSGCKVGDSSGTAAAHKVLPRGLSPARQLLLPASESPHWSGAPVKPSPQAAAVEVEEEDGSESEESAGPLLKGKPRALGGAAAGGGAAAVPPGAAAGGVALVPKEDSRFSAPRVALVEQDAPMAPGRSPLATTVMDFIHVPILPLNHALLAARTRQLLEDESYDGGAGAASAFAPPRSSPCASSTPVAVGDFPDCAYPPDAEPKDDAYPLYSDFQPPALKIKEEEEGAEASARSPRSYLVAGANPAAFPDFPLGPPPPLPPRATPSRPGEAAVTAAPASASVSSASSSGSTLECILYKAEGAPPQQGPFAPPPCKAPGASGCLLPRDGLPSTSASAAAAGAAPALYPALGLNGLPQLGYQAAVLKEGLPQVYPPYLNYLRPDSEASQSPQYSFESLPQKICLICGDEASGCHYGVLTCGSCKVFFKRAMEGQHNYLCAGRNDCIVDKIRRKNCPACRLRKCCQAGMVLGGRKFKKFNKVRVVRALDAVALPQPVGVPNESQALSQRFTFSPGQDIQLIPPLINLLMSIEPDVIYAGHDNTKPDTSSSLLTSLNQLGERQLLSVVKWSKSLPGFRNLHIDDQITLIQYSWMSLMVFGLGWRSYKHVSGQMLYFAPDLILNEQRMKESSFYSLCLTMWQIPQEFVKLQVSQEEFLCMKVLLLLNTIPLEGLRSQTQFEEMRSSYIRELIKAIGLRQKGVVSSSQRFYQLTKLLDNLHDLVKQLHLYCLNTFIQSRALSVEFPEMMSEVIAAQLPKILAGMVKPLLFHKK

[6] = biological target: Beta-2 adrenergic receptor (Homo sapiens, UniProt P07550); format: functional, cell-based
[7] = biological target: T3, Muscarinic acetylcholine receptor M1 (Homo sapiens, UniProt P11229); format: functional
T3 sequence (P11229 whole entry): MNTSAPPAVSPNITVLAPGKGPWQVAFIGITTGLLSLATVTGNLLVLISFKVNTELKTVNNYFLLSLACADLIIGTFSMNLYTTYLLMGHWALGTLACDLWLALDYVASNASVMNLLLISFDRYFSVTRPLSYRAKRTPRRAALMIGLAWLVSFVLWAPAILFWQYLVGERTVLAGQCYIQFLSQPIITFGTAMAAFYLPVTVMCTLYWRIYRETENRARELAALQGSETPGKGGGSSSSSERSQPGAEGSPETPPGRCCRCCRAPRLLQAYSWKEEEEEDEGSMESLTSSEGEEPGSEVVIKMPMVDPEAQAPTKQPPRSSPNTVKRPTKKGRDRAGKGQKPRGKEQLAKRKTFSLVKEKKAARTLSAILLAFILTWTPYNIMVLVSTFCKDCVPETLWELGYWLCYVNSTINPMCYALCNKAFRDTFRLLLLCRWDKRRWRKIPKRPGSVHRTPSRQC

[8] = biological target: 5-hydroxytryptamine receptor 2B (Homo sapiens, UniProt P41595); format: functional, cell-based
[9] = biological target: Mu-type opioid receptor (Homo sapiens, UniProt P35372)
[10] = biological target: T4, Alpha-1A adrenergic receptor (Homo sapiens, UniProt P35348)
T4 sequence (P35348 whole entry): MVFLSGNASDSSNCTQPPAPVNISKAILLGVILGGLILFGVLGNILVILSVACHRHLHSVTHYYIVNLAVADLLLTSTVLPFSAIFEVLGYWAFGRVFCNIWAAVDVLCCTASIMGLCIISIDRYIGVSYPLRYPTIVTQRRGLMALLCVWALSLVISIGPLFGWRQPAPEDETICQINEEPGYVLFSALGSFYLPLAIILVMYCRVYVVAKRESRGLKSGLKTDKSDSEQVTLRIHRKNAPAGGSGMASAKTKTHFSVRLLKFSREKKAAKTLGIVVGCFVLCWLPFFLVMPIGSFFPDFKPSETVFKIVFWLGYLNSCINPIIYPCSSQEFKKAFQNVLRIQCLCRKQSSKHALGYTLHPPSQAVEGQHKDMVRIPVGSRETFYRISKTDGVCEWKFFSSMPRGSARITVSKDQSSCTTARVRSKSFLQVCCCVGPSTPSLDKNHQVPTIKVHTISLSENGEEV

[11] = biological target: Cannabinoid receptor 1 (Homo sapiens, UniProt P21554)
[12] = biological target: Melanocortin receptor 4 (Homo sapiens, UniProt P32245)
Further: assay procedure not described here.

Sequence of Vasopressin V1a receptor (P37288 whole entry): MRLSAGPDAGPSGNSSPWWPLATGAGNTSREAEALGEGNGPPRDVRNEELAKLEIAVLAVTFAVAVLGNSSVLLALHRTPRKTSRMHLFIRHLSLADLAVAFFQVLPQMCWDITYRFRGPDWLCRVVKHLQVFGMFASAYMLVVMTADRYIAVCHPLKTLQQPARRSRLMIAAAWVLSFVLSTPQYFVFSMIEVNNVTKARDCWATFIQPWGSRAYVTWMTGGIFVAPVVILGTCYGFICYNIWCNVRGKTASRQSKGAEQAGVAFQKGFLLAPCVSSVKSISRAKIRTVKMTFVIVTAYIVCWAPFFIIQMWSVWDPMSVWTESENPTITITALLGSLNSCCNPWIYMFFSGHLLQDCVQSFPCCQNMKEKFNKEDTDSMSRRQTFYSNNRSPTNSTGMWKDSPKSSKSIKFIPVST
Sequence of Growth hormone secretagogue receptor type 1 (Q92847 whole entry): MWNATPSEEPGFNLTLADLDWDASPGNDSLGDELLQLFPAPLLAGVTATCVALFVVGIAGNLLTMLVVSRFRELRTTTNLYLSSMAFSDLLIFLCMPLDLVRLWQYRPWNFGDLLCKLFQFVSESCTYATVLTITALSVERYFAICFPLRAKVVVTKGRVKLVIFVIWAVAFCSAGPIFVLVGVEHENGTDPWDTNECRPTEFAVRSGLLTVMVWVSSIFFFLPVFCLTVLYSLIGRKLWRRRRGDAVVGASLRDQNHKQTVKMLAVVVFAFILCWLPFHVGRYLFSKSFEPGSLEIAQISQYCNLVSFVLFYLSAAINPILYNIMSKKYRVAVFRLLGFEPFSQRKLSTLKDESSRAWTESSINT
Sequence of 5-hydroxytryptamine receptor 2B (P41595 whole entry): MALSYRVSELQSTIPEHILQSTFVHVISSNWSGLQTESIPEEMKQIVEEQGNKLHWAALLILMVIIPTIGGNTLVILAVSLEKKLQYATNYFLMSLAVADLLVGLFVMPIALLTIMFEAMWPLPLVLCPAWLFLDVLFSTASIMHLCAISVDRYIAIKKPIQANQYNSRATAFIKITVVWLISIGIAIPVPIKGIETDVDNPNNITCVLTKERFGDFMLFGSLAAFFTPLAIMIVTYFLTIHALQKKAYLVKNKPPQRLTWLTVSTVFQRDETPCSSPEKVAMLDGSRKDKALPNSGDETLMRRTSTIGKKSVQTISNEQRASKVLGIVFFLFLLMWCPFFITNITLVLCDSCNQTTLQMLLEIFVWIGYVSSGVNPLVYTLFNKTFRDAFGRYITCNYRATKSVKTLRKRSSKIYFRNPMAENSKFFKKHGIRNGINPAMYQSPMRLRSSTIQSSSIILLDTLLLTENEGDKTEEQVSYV
Sequence of Beta-1 adrenergic receptor (P08588 whole entry): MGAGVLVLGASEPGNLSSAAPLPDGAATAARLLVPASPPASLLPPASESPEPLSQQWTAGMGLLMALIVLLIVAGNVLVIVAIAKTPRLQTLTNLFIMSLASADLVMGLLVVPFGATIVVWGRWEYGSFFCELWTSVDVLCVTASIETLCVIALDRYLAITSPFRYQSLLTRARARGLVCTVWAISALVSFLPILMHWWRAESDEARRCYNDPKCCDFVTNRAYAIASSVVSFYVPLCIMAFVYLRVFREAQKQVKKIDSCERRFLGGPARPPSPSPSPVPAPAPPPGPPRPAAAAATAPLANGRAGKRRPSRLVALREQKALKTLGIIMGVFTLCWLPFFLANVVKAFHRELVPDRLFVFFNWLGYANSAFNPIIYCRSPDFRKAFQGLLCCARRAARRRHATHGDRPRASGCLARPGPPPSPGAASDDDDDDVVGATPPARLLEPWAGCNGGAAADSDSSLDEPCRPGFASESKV
Sequence of Beta-2 adrenergic receptor (P07550 whole entry): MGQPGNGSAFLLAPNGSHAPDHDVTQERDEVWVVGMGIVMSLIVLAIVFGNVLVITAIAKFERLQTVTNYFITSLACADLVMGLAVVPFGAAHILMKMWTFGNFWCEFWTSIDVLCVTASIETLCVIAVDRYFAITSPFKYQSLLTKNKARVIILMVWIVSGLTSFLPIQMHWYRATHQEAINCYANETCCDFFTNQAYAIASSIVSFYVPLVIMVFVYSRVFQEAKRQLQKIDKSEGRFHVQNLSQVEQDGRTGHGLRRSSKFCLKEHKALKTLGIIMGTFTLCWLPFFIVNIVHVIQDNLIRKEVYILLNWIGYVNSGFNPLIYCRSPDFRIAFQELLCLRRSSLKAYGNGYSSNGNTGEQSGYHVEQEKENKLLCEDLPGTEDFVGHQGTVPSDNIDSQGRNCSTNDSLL
Sequence of Mu-type opioid receptor (P35372 whole entry): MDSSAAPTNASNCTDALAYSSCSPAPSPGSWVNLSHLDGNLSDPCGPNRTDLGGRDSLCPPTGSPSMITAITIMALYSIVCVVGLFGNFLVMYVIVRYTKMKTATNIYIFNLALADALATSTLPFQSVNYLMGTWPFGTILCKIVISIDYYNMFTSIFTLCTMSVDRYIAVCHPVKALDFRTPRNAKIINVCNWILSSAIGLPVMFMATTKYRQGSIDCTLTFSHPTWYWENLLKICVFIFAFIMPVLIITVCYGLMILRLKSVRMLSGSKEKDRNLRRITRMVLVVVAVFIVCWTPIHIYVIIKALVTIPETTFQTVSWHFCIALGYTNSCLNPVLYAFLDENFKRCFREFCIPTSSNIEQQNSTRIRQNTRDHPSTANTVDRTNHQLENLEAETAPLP
Sequence of Cannabinoid receptor 1 (P21554 whole entry): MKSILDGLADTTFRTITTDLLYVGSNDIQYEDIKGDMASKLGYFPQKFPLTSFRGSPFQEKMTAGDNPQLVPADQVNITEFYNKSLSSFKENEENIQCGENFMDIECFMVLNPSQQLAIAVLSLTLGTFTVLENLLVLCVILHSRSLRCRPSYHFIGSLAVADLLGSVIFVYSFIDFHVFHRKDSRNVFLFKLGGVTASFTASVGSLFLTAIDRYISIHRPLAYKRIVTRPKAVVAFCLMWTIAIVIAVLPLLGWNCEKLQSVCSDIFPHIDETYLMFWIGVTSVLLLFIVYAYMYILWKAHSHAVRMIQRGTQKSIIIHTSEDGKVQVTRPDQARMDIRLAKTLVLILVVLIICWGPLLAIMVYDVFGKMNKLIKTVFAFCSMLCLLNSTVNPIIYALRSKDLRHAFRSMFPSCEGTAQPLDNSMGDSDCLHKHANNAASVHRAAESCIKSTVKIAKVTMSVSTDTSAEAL
Sequence of Melanocortin receptor 4 (P32245 whole entry): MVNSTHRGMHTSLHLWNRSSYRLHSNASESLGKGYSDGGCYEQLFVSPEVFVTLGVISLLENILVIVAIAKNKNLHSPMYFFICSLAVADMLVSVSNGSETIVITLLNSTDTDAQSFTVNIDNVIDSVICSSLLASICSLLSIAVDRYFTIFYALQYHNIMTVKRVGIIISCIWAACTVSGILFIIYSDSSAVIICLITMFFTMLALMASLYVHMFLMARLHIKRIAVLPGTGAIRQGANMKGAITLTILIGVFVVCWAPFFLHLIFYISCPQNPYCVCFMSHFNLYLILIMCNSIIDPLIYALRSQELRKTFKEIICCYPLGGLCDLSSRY

| Structure (SMILES) | AC50 [1] | AC50 [2] | AC50 [3] | AC50 [4] | AC50 [5] | AC50 [6] | AC50 [7] | AC50 [8] | AC50 [9] | AC50 [10] | AC50 [11] | AC50 [12] |
| --- | --- | --- | --- | --- | --- | --- | --- | --- | --- | --- | --- | --- |
| Nc1ncnc2c1ncn2[C@@H]1O[C@H](COP(=O)(O)O)[C@@H](O)[C@H]1O [ADENOSINE PHOSPHATE] | > 30 µM | > 30 µM | > 30 µM | > 30 µM | > 30 µM | 9.5 µM | > 30 µM | > 30 µM |  |  |  |  |
| COc1c(C)c2c(c(O)c1C/C=C(\C)CCC(=O)OCCN1CCOCC1)C(=O)OC2 [MYCOPHENOLATE MOFETIL] | > 30 µM |  | > 30 µM | > 30 µM | > 30 µM | > 30 µM |  | > 30 µM |  |  |  |  |
| C1=Cc2cccc(OCC3CNCCO3)c2C1 (configuration not stated) [INDELOXAZINE] | > 30 µM | > 30 µM | > 30 µM | > 30 µM | > 30 µM | > 30 µM | > 30 µM | > 30 µM |  |  |  |  |
| C#C[C@]1(O)CC[C@H]2[C@@H]3CCC4=CCCC[C@@H]4[C@H]3CC[C@@]21C [LYNESTRENOL] | > 30 µM | > 30 µM | > 30 µM | > 30 µM | 5.2 µM | > 30 µM | > 30 µM | > 30 µM |  |  |  |  |
| CCCC(CCC)C(=O)O[C@H]1C[C@H]2CC[C@@H](C1)[N+]2(C)C [ANISOTROPINE] | > 30 µM | > 30 µM | > 30 µM | > 30 µM | > 30 µM | > 30 µM | 0.17 µM | > 30 µM |  |  |  |  |
| CN1CCC2=C(C1)C(c1ccccc1)c1ccccc12 (configuration not stated) [PHENINDAMINE] | > 10 µM | > 10 µM | > 10 µM | > 10 µM | > 30 µM |  | > 10 µM | > 10 µM | > 30 µM | > 10 µM | > 10 µM | > 10 µM |

Now from value to molecule, other results behind:

| AC50 [1] | AC50 [2] | AC50 [3] | AC50 [4] | AC50 [5] | AC50 [6] | AC50 [7] | AC50 [8] | Structure (SMILES) | AC50 [9] | AC50 [10] | AC50 [11] | AC50 [12] |
| --- | --- | --- | --- | --- | --- | --- | --- | --- | --- | --- | --- | --- |
| > 30 µM | > 30 µM | > 30 µM | > 30 µM | > 30 µM | > 30 µM | > 30 µM | > 30 µM | CCC(C(=O)O)c1ccc(CC(C)C)cc1 (configuration not stated) [BUTIBUFEN] |  |  |  |  |
| > 30 µM |  | > 30 µM | > 30 µM | > 30 µM | > 30 µM |  | > 30 µM | Cc1cccc(C)c1NC(=O)C1CCCCN1C (configuration not stated) [MEPIVACAINE] |  |  |  |  |
| > 30 µM | > 30 µM | > 30 µM | > 30 µM |  | > 30 µM | > 30 µM | > 30 µM | CC/C=C\C/C=C\C/C=C\CCCCCCCC(=O)O [LINOLENIC ACID] | > 30 µM |  |  |  |
| > 30 µM | > 30 µM | > 30 µM | > 30 µM | 12 µM | > 30 µM | > 30 µM | > 30 µM | COc1ccc(C(=O)N2CCN(c3ccc4c(c3)CCC(=O)N4)CC2)cc1OC [VESNARINONE] |  |  |  |  |
| > 30 µM | > 30 µM | > 30 µM | > 30 µM | > 30 µM | > 30 µM | > 30 µM | > 30 µM | O=C(O)Cc1cn(-c2ccccc2)nc1-c1ccc(Cl)cc1 [LONAZOLAC] |  |  |  |  |
